Laboratory results taken from US12371434B2, “MLL1 inhibitors and anti-cancer agents” (NOVARTIS AG, priority 2020, dated 2025).

Columns and labels:
[1] = system: MV4-11 cells; experiment: MV4-11 6-day cell growth CTG (CellTiter-Glo) assay; assay type: cell-based; conditions: Homo sapiens, 144 h, 6 days
Description: MV4-11 6-Day Cell Growth CTG (CellTiter-Glo) Assay
Acute myeloid leukemia cell MV4-11 (ATCC® CRL-9591™) was cultured with RPMI 1640 medium (Thermo Fisher Scientific, cat #11875) supplemented with 10% FBS (Thermo Fisher Scientific, cat #10099141) in humidified incubator at 37° C., 5% CO2. To assess the effect of MLL1 inhibition on cell growth, the compound of the present invention was dissolved in DMSO and serially diluted at 1:3 for 12 points starting from 10 mM then 200 nL for the replicate of each dose per well was dispensed to Viewplate-384 Black (Perkin Elmer). Exponentially growing MV4-11 cells were seeded at the density of 300 cells per well in 40 μL to the plate, so the final compound working concentration starts from 50 μM. After 6 days, 40 μL CellTiter-Glo (Promega, cat #G7573) was added into the cell culture well and luminescence was read with Envision (Perkin Elmer) to determine the viable cells. The percentage inhibition was calculated against the samples treated with DMSO only and the data were used for dose response curve fitting in GraphPad Prism to get the IC50 of representative compound of present invention, which reflects the inhibition of MLL1 activity.

[2] = target: wild type MLL1 five-member complex (MLL1-5C) (Homo sapiens, UniProt Q03164); experiment: MLL1 Flashplate assay; assay type: biochemical; conditions: 2.5 nM MLL1-5C, 0.5 μM 3H-SAM, 1 μM H3K4me0; read-out: MLL1 flash plate
Description: MLL1 Flashplate Assay To assess the compound potency in MLL1 Flashplate assay, compounds were serially diluted 3-fold in DMSO to obtain a total of twelve concentrations. Then the test compounds at each concentration (250 nL of each) were transferred by Mosquito into Corning #3675 384-well plate. Solutions (15 μL) of 4.2 nM wild type MLL1 five-member complex (MLL1-5C) in the assay buffer (20 mM Tris-HCl, pH8.0, 0.01% Tween 20, 1 mM DTT, 0.01% BSA) were added to the wells. A 10 μL solution of 2.5 μM of the peptide substrate H3K4me0 (histone H3[1-21]-Biotin) and 1.25 μM ^3H-SAM in the reaction buffer was then added to initiate each reaction. The final components in the reaction solution include 2.5 nM MLL1-5C, 0.5 μM ^3H-SAM, and 1 μM H3K4me0 with varying concentration of the compounds. A positive control consisted of 2.5 nM MLL1-5C, 0.5 μM ^3H-SAM, and 1 μM substrate in the absence of the test compound, and a negative control consisted of 0.5 μM ^3H-SAM, and 1 μM substrate only. Each reaction was incubated at rt for 90 min, then stopped by addition of 5 μL per of quench solution (0.5 mM SAM in assay buffer). 25 μL of each reaction solution was transferred to FlashPlate streptavidin 384-well microplate (PerkinElmer). After at least 1 h incubation at rt, the wells were washed three times with 0.1% Tween-20 in dH2O using the BioTek plate washer. The plates were then read in MicroBeta (PerkinElmer). The radioactive readouts were then normalized based on the values coming from the positive and negative controls to give percent enzyme activities. The data were then fit to a dose response equation using the program Helios to get the IC50 values of the test compounds.

[3] = target: wild type MLL1 four-member complex (MLL1-4C) (Homo sapiens, UniProt Q03164); experiment: MLL1 LC-MS assay; assay type: biochemical; conditions: 30 nM MLL1-4C, 2.5 μM SAM, 10 μM H3K4me0; SAH production by LC-MS/MS; read-out: MLL1 LCMS
Description: The compounds of the present disclosure were serially and separately diluted 3-fold in DMSO to obtain a total of eight or twelve concentrations. Then the test compounds at each concentration (120 nL of each) were transferred by Mosquito into white Proxiplate plus 384-well microplate (PerkinElmer). Solutions (6 μL) of 60 nM wild type MLL1 four-member complex (MLL1-4C) and 5 μM SAM in the reaction buffer (20 mM Tris-HCl, pH8.0, 0.01% Tween 20, 1 mM DTT, 10 mM MgCl2, 0.01% BSA) were added to the wells that were then incubated with the test compound for 20 min. A 6 μL solution of 20 μM of the peptide substrate H3K4me0 (histone H3[1-21]-Biotin) in the reaction buffer was added to initiate each reaction. The final components in the reaction solution include 30 nM MLL1-4C, 2.5 μM SAM, and 10 μM H3K4me0 with varying concentration of the compounds. A positive control consisted of 30 nM MLL1-4C, 2.5 μM SAM, and 10 μM substrate in the absence of the test compound, and a negative control consisted of 2.5 μM SAM, and 10 μM substrate only. Each reaction was incubated at rt for 120 min, then stopped by addition of 3 μL per of quench solution (2.5% TFA with 320 nM d4-SAH). The reaction mixture was centrifuged (Eppendorf centrifuge 5810, Rotor A-4-62) for 2 min at 2000 rmp. The SAH production from the enzymatic assays were monitored by LC-MS/MS on an API 4000 triple quadrupole mass spec with TurboIon Spray (Applied Biosystem) coupled with Prominenece UFLC(Shimazu). The level of SAH production were then normalized based on the values coming from the positive and negative controls to give percent enzyme activities. The data were then fit to a dose response equation using the program Helios (Novartis) to get the IC50 values of the test compounds.

[4] = system: H3K4me3 in MV4-11 cells; experiment: MV4-11 H3K4Me3 cellular ELISA assay; assay type: cell-based; conditions: Homo sapiens, 48 hours, H3K4me3 signal normalized to total H3
Description: MV4-11H3K4Me3 Cellular ELISA Assay
MV4-11 (ATCC® CRL-9591™) was cultured with RPMI1640 medium (Thermo Fisher Scientific, cat #11875) supplemented with 10% FBS (Thermo Fisher Scientific, cat #10099141) and 50 U/ml Penicillin-Streptomycin (Thermo Fisher Scientific, cat #10378016) in humidified incubator at 37° C., 5% CO2.
200 nL compounds dissolved in DMSO were serially diluted at 1:3 ratio for 12 points starting from 10 mM and dispensed into each wells of cell culture plates (PDL-coated ViewPlate-384 Black, FTC, PerkinElmer, #6007710). 3,750 MV4-11 cells in 40 μL culture medium were seeded into each well and treated with desired concentration for 48 hours. After treatment, wash cells with cold phosphate based buffer (PBS, pH 7.4) and aspirate the remaining PBS buffer. Crude histone lysate was extracted by 40 μL 0.5M HCl for 1 hour in 4° C. following neutralization by adding 32 μL neutralization buffer (0.5M Sodium phosphate dibasic, pH˜12.5, 1.25 mM Dithiothreitol, Promega #V3151, Protease Inhibitor Cocktail, Sigma #8340) for each well. 5 μL and 20 μL of histone lysate was loaded to ELISA plate (384 Well Plates, PE HB, White, 6005620) for detection of total H3 and H3K4me3, respectively. Shake the plates gently in 4° C. for overnight. After histone binding, plates were washed with 80 μL PBS/T (PBS with 0.05% Tween-20) and blocked with 50 μL 3% BSA diluted in PBS/T per well for 1 hour. Incubate wells with primary antibody for 1 hour at room temperature using anti-H3K4me3 (CST #9727) and anti-total H3 (CST #9715) diluted 1:2000 in 3% BSA. Plates were then washed with PBS/T for 3 times and incubated with horseradish peroxidase (HRP) conjugated secondary antibody (CST #7074, 1:5000) for 1 hour at room temperature. The abundance of H3K4me3 and total H3 were measured by ECL substrates chemiluminesce (Pierce, #34080) on a plate reader (PerkinElmer EnVison 2104 Mutilable Reader). Percentage inhibition was calculated against DMSO control after normalization of H3K4me3 signal to H3 signal for individual samples. The data were then fit to a dose response curve using GraphPad Prism for IC50 calculation.

IC50 [1] [nM]	IC50 [2] [nM]	IC50 [3] [nM]	SMILES	IC50 [4] [nM]
2000 to 3000	< 60	< 50	COC[C@H](N)CCCOc1ccc(Cl)c(Cl)c1Cn1cnc2c(N)ncnc21 [Example 1, (R)-9-(6-((4-amino-5-methoxypentyl)oxy)-2,3-dichlorobenzyl)-9H-purin-6-amine]	> 3000
> 3000	< 60	50 to 100	COC[C@H](N)CCCOc1ccc2cc(Br)ccc2c1Cn1cnc2c(N)ncnc21 [Example 20, (R)-9-((2-((4-amino-5-methoxypentyl)oxy)-6-bromonaphthalen-1-yl)methyl)-9H-purin-6-amine]	> 3000
2000 to 3000	< 60	< 50	Nc1ncnc2c1ncn2Cc1c(OCCC[C@@H](N)C(=O)O)ccc(Cl)c1Cl [Example 23, (R)-2-amino-5-(2-((6-amino-9H-purin-9-yl)methyl)-3,4-dichlorophenoxy)pentanoic acid]	< 1900
< 2000		50 to 100	COC(=O)[C@H](N)CCCOc1ccc(Cl)c(Cl)c1Cc1cnc2c(N)ncnn12 [Example 34, Methyl (R)-2-amino-5-(2-((4-aminoimidazo[2,1-f][1,2,4]triazin-7-yl)methyl)-3,4-dichlorophenoxy)pentanoate]	< 1900
< 2000		50 to 100	COCCNC(=O)[C@H](N)CCCOc1ccc(Cl)c(Cl)c1Cn1cnc2c(N)ncnc21 [Example 41, (R)-2-amino-5-(2-((6-amino-9H-purin-9-yl)methyl)-3,4-dichlorophenoxy)-N-(2-methoxyethyl) pentanamide]	< 1900
< 2000	< 60	< 50	Nc1ncnc2c1ncn2Cc1c(OCCC[C@@H](N)C(=O)NC2CC2)ccc(Cl)c1Cl [Example 42, (R)-2-amino-5-(2-((6-amino-9H-purin-9-yl)methyl)-3,4-dichlorophenoxy)-N-cyclopropylpentanamide]	< 1900
< 2000	< 60	< 50	CS(=O)(=O)NC(=O)[C@H](N)CCCOc1ccc(Cl)c(Cl)c1Cn1cnc2c(N)ncnc21 [Example 43, (R)-2-amino-5-(2-((6-amino-9H-purin-9-yl)methyl)-3,4-dichlorophenoxy)-N-(methylsulfonyl)pentanamide]	< 1900
2000 to 3000	60 to 100	50 to 100	Nc1ncnc2c1ncn2Cc1c(OCCC[C@@H](N)CO)ccc(Cl)c1Cl [Example 45, (R)-2-amino-5-(2-((6-amino-9H-purin-9-yl)methyl)-3,4-dichlorophenoxy)pentan-1-ol]	
> 3000	> 100	> 100	COCCOC[C@H](N)CCCOc1ccc(Cl)c(Cl)c1Cn1cnc2c(N)ncnc21 [Example 47, (R)-9-(6-((4-amino-5-(2-methoxyethoxy)pentyl)oxy)-2,3-dichlorobenzyl)-9H-purin-6-amine]	
> 3000	> 100	50 to 100	CSC[C@H](N)CCCOc1ccc(Cl)c(Cl)c1Cn1cnc2c(N)ncnc21 [Example 52, (R)-9-(6-((4-amino-5-(methylthio)pentyl)oxy)-2,3-dichlorobenzyl)-9H-purin-6-amine]	
> 3000	> 100	> 100	CN(C)C[C@H](N)CCCOc1ccc(Cl)c(Cl)c1Cn1cnc2c(N)ncnc21 [Example 53, (R)-5-(2-((6-amino-9H-purin-9-yl)methyl)-3,4-dichlorophenoxy)-N^1,N^1-dimethylpentane-1,2-diamine]	> 3000

SMILES	IC50 [1] [nM]	IC50 [2] [nM]	IC50 [3] [nM]	IC50 [4] [nM]
CCOC(=O)[C@H](N)CCCOc1ccc(Cl)c(Cl)c1Cn1cnc2c(N)ncnc21 [Example 29, Ethyl (R)-2-amino-5-(2-((6-amino-9H-purin-9-yl)methyl)-3,4-dichlorophenoxy)pentanoate]	< 2000	< 60	< 50	< 1900
Nc1ncnc2c1ncn2Cc1c(OCCC[C@@H](N)c2nc[nH]n2)ccc(Cl)c1Cl [Example 48, (R)-9-(6-(4-amino-4-(1H-1,2,4-triazol-3-yl)butoxy)-2,3-dichlorobenzyl)-9H-purin-6-amine]	< 2000	< 60	< 50	< 1900
Cc1nnc([C@H](N)CCCOc2ccc(Cl)c(Cl)c2Cn2cnc3c(N)ncnc32)s1 [Example 50, (R)-9-(6-(4-amino-4-(5-methyl-1,3,4-thiadiazol-2-yl)butoxy)-2,3-dichlorobenzyl)-9H-purin-6-amine]	> 3000	< 60	< 50	> 3000
Nc1ncnc2c1ncn2Cc1c(OCCC[C@@H](N)c2nnco2)ccc(Cl)c1Cl [Example 51, (R)-9-(6-(4-amino-4-(1,3,4-oxadiazol-2-yl)butoxy)-2,3-dichlorobenzyl)-9H-purin-6-amine]	> 3000	60 to 100	> 100	
